This is an account of results in patent US20130252930A1 (BIOMARIN PHARMACEUTICAL INC., priority 2010, published 2013).

Structures are written as SMILES. Like-named read-outs stand apart in the source and are kept apart here.

For series [1], the target named is T1, CYP17 (human testicular microsome) (Homo sapiens, UniProt P05093).
T1 construct: using microsomal fraction from human testis (Celsis Cat #S00110) as the enzyme source; tissue Celsis S00110; host or cells: human testis microsomal fraction
T1 sequence (P05093 1-508): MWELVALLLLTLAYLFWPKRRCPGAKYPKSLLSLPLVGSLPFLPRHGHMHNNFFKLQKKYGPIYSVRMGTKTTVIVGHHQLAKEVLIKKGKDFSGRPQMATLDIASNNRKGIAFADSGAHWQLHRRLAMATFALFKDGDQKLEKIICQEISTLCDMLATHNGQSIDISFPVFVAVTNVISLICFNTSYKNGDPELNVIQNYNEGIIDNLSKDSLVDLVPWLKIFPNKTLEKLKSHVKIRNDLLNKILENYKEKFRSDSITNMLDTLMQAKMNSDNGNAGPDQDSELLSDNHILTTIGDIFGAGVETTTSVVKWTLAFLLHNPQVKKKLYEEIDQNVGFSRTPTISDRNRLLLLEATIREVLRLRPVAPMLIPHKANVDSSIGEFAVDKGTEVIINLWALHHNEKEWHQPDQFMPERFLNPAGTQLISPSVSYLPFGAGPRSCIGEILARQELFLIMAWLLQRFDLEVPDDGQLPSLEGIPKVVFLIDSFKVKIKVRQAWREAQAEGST
As to the kind of experiment: CYP17 enzymatic assay (IC50) (Biological Example 4). Type of series: biochemical.
Protocol: The assays were performed in 96-well plates. Typical assays were carried out in total 100 μL volume that included test compounds at designated concentrations, 1× reaction buffer, 0.5 mM NADPH, 1 μM 17α-hydroxypregnenolone, and 2.5 μL of diluted human testicular microsome (Celsis. Cat #S00110). Reaction without test compound served as positive control. Reactions were allowed to incubate at 37° C. for 90 minutes with gentle shaking. The reaction was stopped by directly applying the enzymatic reaction mixture to ELISA plate for evaluation of DHEA concentration according to manufacturer's protocol (IBL America). A standard curve (OD450 vs. DHEA concentration) was generated using purified DHEA.

The target of series [2] is T1, CYP17 (human testicular microsome). The series can be described thus: CYP17 enzymatic assay (% inhibition at 10 nM), version 1 (Biological Example 5). Type of series: biochemical. Particulars: 10 nM compound, DHEA by ELISA, read-out: Biological Example No. 5: CYP17 percent inhibition at 10 nM (version 1). For orientation: In an ELISA, binding on a coated surface is turned into a signal by an enzyme label.

The nature of series [3]: Human liver microsome stability assay (Biological Example 8b). Particulars: liver microsomes, pH 7.4. A general note: Liver microsomes are a subcellular fraction often used to study metabolism.
Protocol: The reaction was started with addition of excess NADPH (5 mg/mL, 15 μL in 0.1 M potassium phosphate buffer, 1.0 mM EDTA, pH 7.4), the total volume is 45 μL (compound final concentration was 1 μM). […] 50 μL of the supernatant was transferred from each well into a 96-well sample plate containing 50 μL of ultra-pure water (Millipore) for LC-MS/MS analysis.
Series [4] addresses T1, CYP17 (human testicular microsome). As to the kind of experiment: CYP17 enzymatic assay (% inhibition at 1 nM) (Biological Example 12). Particulars: compound at 1 nM. Type of series: biochemical.
Series [5] addresses T2, Cyp21 enzyme (Human HEK 293-Cyp21 stable transfected cells) (Homo sapiens, UniProt P08686).
T2 construct: expressed in transfected cells
T2 sequence (P08686 1-495): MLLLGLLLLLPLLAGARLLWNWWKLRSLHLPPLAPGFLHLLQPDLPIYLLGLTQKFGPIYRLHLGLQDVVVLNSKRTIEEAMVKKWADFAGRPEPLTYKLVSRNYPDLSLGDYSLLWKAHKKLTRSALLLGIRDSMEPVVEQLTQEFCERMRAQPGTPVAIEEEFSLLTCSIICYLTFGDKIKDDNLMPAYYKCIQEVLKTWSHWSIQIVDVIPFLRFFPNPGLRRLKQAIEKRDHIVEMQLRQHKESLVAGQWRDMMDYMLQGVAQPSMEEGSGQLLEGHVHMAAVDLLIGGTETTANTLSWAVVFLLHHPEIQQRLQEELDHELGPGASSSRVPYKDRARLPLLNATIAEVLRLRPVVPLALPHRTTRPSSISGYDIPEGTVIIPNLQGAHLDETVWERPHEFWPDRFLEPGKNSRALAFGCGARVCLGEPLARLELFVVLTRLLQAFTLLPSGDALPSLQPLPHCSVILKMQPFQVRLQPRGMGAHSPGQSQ
The series can be described thus: CYP21-HEK293 enzymatic assay (IC50) (Biological Example 11). In kind it is cell-based. The following applies: HEK 293-Cyp21 stable transfected cells; read-out: CYP21-HEK293 enzymatic assay IC50 (Biological Example No. 11).

Setting [6] is: human testicular microsome, DHEA by ELISA, read-out: Biological Example No. 4: CYP17 enzymatic assay IC50.
Where [7] appears, read: read-out: CYP17 enzymatic assay % inhibition at 1 nM (Biological Example No. 12).
Setting [8] is: human testicular microsome, read-out: Biological Example No. 4: CYP17 enzymatic assay IC50.
[9] abbreviates: read-out: Biological Example No. 12: CYP17 enzymatic assay % inhibition at 1 nM.
The mark [10] stands for this setting: human testicular microsome, read-out: CYP17 enzymatic assay IC50 (Biological Example No. 4).

The term IC50 denotes the concentration at which inhibition is half-maximal. One may read the inhibition as the relative decrease from the control value, in per cent. As a reminder, the half-life is how long it takes for the measured level to halve. The low end stands for fast loss, the high end for slow loss. Consider `C[C@]12CCCCC1C(O)C[C@@H]1[C@@H]2CC[C@]2(C)C(n3ccnc3)=CC[C@@H]12` (stereo partly drawn) [Compound 85, (10R,13S)-17-(1H-imidazol-1-yl)-10,13-dimethyl-2,3,4,5,6,7,8,9,10,11,12,13,14,15-tetradecahydro-1H-cyclopenta[a]phenanthren-6-ol], for which the half-maximal inhibitory concentration (IC50) in series [1] (setting [6]) is less than 11 nM. The inhibition at 0.01 µM in series [2] lay within 50 to 80%. Further, the half-life at 1 μM in series [3] was in the range of 1 to 50 min.

As to `C[C@]12CCC(=O)CCC1=CCC1[C@@H]2CC[C@]2(C)C(n3ccnc3)=CC[C@@H]12` (stereo partly drawn) [Compound 106, (3aS,10aR,10bS,12aS)-1-(1H-imidazol-1-yl)-10a,12a-dimethyl-3,3a,3b,4,6,7,10,10a,10b,11,12,12a-dodecahydrocyclohepta[a]cyclopenta[f]naphthalen-8(9H)-one], the IC50 in series [1] (setting [6]) was less than 11 nM. In addition, the inhibition at 0.01 µM in series [2] is greater than 80%. For the same compound, the half-life at 1 μM in series [3] was in the range of 1 to 50 min.

Take `C[C@]12CC[C@H]3[C@@H](CC[C@H]4C[C@@H](O)CC[C@@]43C)C1=CC=C2c1cccnc1` [Compound 163, (5S,8R,9S,10S,13S)-10,13-dimethyl-17-(pyridin-3-yl)-2,3,4,5,6,7,8,9,10,11,12,13-dodecahydro-1H-cyclopenta[a]phenanthren-3-ol]: in series [1] (setting [6]), the 50% inhibitory concentration (IC50) is less than 11 nM. For the same compound, the inhibition at 0.01 µM in series [2] is greater than 80%. Also, the half-life at 1 μM in series [3] is greater than 50 min.

`C[C@]1(O)CC[C@@]2(C)C(CCC3C4=CC=C(c5cccnc5)[C@@]4(C)CCC32)C1` (stereo partly drawn) [Compound 259, (3S,10S,13S)-3,10,13-trimethyl-17-(pyridin-3-yl)-2,3,4,5,6,7,8,9,10,11,12,13-dodecahydro-1H-cyclopenta[a]phenanthren-3-ol] registered an IC50 in series [1] of less than 11 nM. The inhibition at 0.001 µM in series [4] (setting [7]) is 10 to 50%. Besides, the half-life at 1 μM in series [3] lay in the range of 1 to 50 min.

Turning to `C[C@]12CC[C@H](O)CC1=CCC1C2CC[C@]2(C)C(c3cncc(F)c3)=CCC12` (stereo partly drawn) [Compound 274, (3S,10R,13S)-17-(5-fluoropyridin-3-yl)-10,13-dimethyl-2,3,4,7,8,9,10,11,12,13,14,15-dodecahydro-1H-cyclopenta[a]phenanthren-3-ol], in series [1] (setting [8]), the IC50 was less than 11 nM. Also, in series [4] (setting [9]), the inhibition at 0.001 µM is greater than 50%. This compound also had a half-life at 1 μM in series [3] greater than 50 min.

Regarding `C[C@]12CC[C@H](O)CC1=CCC1C2CC[C@]2(C)C(c3ccc(F)nc3)=CCC12` (stereo partly drawn) [Compound 276, (3S,10R,13S)-17-(6-fluoropyridin-3-yl)-10,13-dimethyl-2,3,4,7,8,9,10,11,12,13,14,15-dodecahydro-1H-cyclopenta[a]phenanthren-3-ol], the IC50 in series [1] (setting [8]) is greater than 25 nM. Moreover, the inhibition at 0.001 µM in series [4] (setting [9]) lay within 10 to 50%. In series [3], this compound returned a half-life at 1 μM of 1 to 50 min.

For `C[C@]12CC[C@H](O)CC1=CCC1C2CC[C@]2(C)C(c3cncc(Cl)c3)=CCC12` (stereo partly drawn) [Compound 280, (3S,10R,13S)-17-(5-chloropyridin-3-yl)-10,13-dimethyl-2,3,4,7,8,9,10,11,12,13,14,15-dodecahydro-1H-cyclopenta[a]phenanthren-3-ol], the IC50 in series [1] (setting [8]) was less than 11 nM. For the same compound, in series [4] (setting [9]), the inhibition at 0.001 µM was greater than 50%. The same compound showed a half-life at 1 μM in series [3] of 1 to 50 min.

With `C[C@]12CC[C@H](O)CC1=CCC1C2CC[C@]2(C)C(c3cncc(N)c3)=CCC12` (stereo partly drawn) [Compound 283, (3S,10R,13S)-17-(5-aminopyridin-3-yl)-10,13-dimethyl-2,3,4,7,8,9,10,11,12,13,14,15-dodecahydro-1H-cyclopenta[a]phenanthren-3-ol], in series [1] (setting [8]), the half-maximal inhibitory concentration (IC50) was less than 11 nM. For the same compound, the inhibition at 0.001 µM in series [4] (setting [9]) was greater than 50%. Moreover, the half-life at 1 μM in series [3] was greater than 50 min.

Take `CC1(C)C2=CCC3C4=CC=C(c5cccnc5)[C@@]4(C)CCC3[C@@]2(C)CCC1O` (stereo partly drawn) [Compound 298, (10R,13S)-4,4,10,13-tetramethyl-17-(pyridin-3-yl)-2,3,4,7,8,9,10,11,12,13-decahydro-1H-cyclopenta[a]phenanthren-3-ol]: the IC50 in series [1] (setting [10]) is greater than 25 nM. Also, in series [4] (setting [7]), the inhibition at 0.001 µM is 10 to 50%. In series [3], this compound returned a half-life at 1 μM of 1 to 50 min.

Consider `C[C@]12CCC3C(CC(F)[C@]4(O)C[C@@H](O)CC[C@]34C)C1CC=C2c1cccnc1` (stereo partly drawn) [Compound 322, (3S,5S,10R,13S)-6-fluoro-10,13-dimethyl-17-(pyridin-3-yl)-2,3,4,5,6,7,8,9,10,11,12,13,14,15-tetradecahydro-1H-cyclopenta[a]phenanthrene-3,5-diol], for which, in series [1] (setting [8]), the 50% inhibitory concentration (IC50) is less than 11 nM. Also, the inhibition at 0.001 µM in series [4] (setting [9]) is greater than 50%. This compound also registered a half-life at 1 μM in series [3] of 1 to 50 min.

For `C[C@]12CCC3C(CC(F)[C@@]4(O)C[C@@H](O)CC[C@]34C)C1CC=C2c1cccnc1` (stereo partly drawn) [Compound 323, (3S,5R,10R,13S)-6-fluoro-10,13-dimethyl-17-(pyridin-3-yl)-2,3,4,5,6,7,8,9,10,11,12,13,14,15-tetradecahydro-1H-cyclopenta[a]phenanthrene-3,5-diol], the IC50 in series [1] (setting [8]) was less than 11 nM. For the same compound, the inhibition at 0.001 µM in series [4] (setting [9]) was greater than 50%. In series [3], this compound had a half-life at 1 μM of 1 to 50 min.

As for `C=C1C[C@H]2C3=CC=C(c4cccnc4)[C@@]3(C)CC[C@@H]2[C@@]2(C)CCC(=O)C=C12` [Compound 348, (10R,13S)-10,13-dimethyl-6-methylene-17-(pyridin-3-yl)-6,7,8,9,10,11,12,13-octahydro-1H-cyclopenta[a]phenanthren-3(2H)-one], the IC50 in series [5] fell in the range of 10 to 100 nM.

`C[C@]12CC[C@H]3[C@@H](CC4(CC4)C4=CC(=O)CC[C@@]43C)C1=CC=C2c1cccnc1` [Compound 351, (10R,13S)-10,13-dimethyl-17-(pyridin-3-yl)-1,7,8,9,10,11,12,13-octahydrospiro[cyclopenta[a]phenanthrene-6,1′-cyclopropan]-3(2H)-one]: in series [5], the IC50 is less than 10 nM.

On to `C=C1C[C@H]2C3=CC=C(c4cncc(F)c4)[C@@]3(C)CC[C@@H]2[C@@]2(C)CCC(=O)C=C12` [Compound 353, (10R,13S)-17-(5-fluoropyridin-3-yl)-10,13-dimethyl-6-methylene-6,7,8,9,10,11,12,13-octahydro-1H-cyclopenta[a]phenanthren-3(2H)-one], for which, in series [5], the half-maximal inhibitory concentration (IC50) was 10 to 100 nM.

Consider `CC(=O)N[C@@H]1CC[C@@]2(C)C(=CC[C@@H]3[C@@H]2CC[C@]2(C)C(c4cncc(F)c4)=CC[C@@H]32)C1` [Compound 427, N-((3R,10R,13S)-17-(5-fluoropyridin-3-yl)-10,13-dimethyl-2,3,4,7,8,9,10,11,12,13,14,15-dodecahydro-1H-cyclopenta[a]phenanthren-3-yl)acetamide], for which the concentration for half-maximal inhibition (IC50) in series [1] (setting [8]) is less than 11 nM. Moreover, in series [4] (setting [9]), the inhibition at 0.001 µM was greater than 50%. In series [3], this compound returned a half-life at 1 μM of 1 to 50 min.

In the case of `C#C[C@]1(O)CC[C@@]2(C)C(CCC3C2CC[C@]2(C)C(c4cccnc4)=CCC32)C1` (stereo partly drawn) [Compound 474, (3S,10S,13S)-3-ethynyl-10,13-dimethyl-17-(pyridin-3-yl)-2,3,4,5,6,7,8,9,10,11,12,13,14,15-tetradecahydro-1H-cyclopenta[a]phenanthren-3-ol], the IC50 in series [1] (setting [10]) was greater than 25 nM. For the same compound, in series [4] (setting [7]), the inhibition at 0.001 µM fell in the range of 10 to 50%. Also, in series [3], the half-life at 1 μM is greater than 50 min.

Regarding `CC(=O)N[C@@H]1CC[C@@]2(C)C(=CCC3C2CC[C@]2(C)C(c4cncc(C(F)F)c4)=CCC32)C1` (stereo partly drawn) [Compound 480, N-((3R,10R,13S)-17-(5-(difluoromethyl)pyridin-3-yl)-10,13-dimethyl-2,3,4,7,8,9,10,11,12,13,14,15-dodecahydro-1H-cyclopenta[a]phenanthren-3-yl)acetamide], the IC50 in series [1] (setting [8]) is less than 11 nM. In addition, the inhibition at 0.001 µM in series [4] (setting [9]) was greater than 50%. In series [3], this compound yielded a half-life at 1 μM of 1 to 50 min.
